These results are taken from ChEMBL document CHEMBL1136524, “Substituted 2-pyridinemethanol derivatives as potent and selective phosphodiesterase-4 inhibitors” (Bioorg Med Chem Lett, 2003).

SMILES strings stand for the structures.

T1 sequence (P27815 whole entry): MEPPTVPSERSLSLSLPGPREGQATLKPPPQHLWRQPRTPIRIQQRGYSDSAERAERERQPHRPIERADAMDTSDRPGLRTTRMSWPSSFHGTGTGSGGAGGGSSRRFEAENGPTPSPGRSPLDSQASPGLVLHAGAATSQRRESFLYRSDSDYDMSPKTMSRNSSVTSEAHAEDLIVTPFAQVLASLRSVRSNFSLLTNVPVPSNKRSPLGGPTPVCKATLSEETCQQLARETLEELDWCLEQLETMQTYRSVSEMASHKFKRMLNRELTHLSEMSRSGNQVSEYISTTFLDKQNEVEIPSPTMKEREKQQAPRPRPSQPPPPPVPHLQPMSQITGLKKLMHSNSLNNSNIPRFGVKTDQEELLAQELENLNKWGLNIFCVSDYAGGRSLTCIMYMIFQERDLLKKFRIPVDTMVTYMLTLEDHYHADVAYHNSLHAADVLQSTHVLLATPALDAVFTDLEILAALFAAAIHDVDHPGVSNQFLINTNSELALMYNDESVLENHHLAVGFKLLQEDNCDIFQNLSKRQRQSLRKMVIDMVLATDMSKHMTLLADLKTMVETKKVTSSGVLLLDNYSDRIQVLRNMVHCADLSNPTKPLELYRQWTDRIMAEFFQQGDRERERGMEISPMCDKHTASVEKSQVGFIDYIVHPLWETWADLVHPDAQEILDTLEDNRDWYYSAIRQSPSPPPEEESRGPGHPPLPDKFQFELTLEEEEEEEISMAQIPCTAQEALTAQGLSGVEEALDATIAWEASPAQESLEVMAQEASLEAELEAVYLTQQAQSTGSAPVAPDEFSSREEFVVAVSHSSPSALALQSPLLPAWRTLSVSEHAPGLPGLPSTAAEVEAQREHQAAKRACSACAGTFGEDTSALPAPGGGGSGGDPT

One data set addresses T1, 3',5'-cyclic-AMP phosphodiesterase 4A (Homo sapiens, UniProt P27815). Nature of the data set: Inhibition of Phosphodiesterase-4A (PDE4).
Settings: not given
What is called IC50 is the midpoint of a concentration-inhibition curve. In turn, `[O-][n+]1ccc(CC(c2ccc(C(O)c3ccccc3)nc2)c2ccc(OC(F)F)c(OC(F)F)c2)cc1` (configuration not stated) showed an IC50 of 6 nM.

As for `O=C(c1ccccc1)c1ccc(C(Cc2cc[n+]([O-])cc2)c2ccc(OC(F)F)c(OC(F)F)c2)cn1` (configuration not stated), the IC50 is 23 nM.

In turn, `CCC(O)(c1ccccc1)c1ccc(C(Cc2cc[n+]([O-])cc2)c2ccc(OC(F)F)c(OC(F)F)c2)cn1` (configuration not stated) gave a half-maximal inhibitory concentration (IC50) of 1 nM.

In a further data set the target is T1, 3',5'-cyclic-AMP phosphodiesterase 4A. Nature of the data set: In vitro inhibitory activity against Phosphodiesterase 4A (PDE4).
Settings: not given
As for `CC(C)C(O)(c1ccccc1)c1ccc(C(Cc2cc[n+]([O-])cc2)c2ccc(OC(F)F)c(OC(F)F)c2)cn1` (configuration not stated), the IC50 worked out at 0.8 nM.

`[O-][n+]1ccc(CC(c2ccc(C(O)(c3ccccc3)c3ccccc3)nc2)c2ccc(OC(F)F)c(OC(F)F)c2)cc1` (configuration not stated) displayed an IC50 of 0.8 nM.

Turning to `CC(O)(c1ccc(C(Cc2cc[n+]([O-])cc2)c2ccc(OC(F)F)c(OC(F)F)c2)cn1)C1CCCCC1` (configuration not stated), the midpoint of inhibition, the IC50, lay at 1.2 nM.

In the case of `CC(C)(O)c1ccc(C(Cc2cc[n+]([O-])cc2)c2ccc(OC(F)F)c(OC(F)F)c2)cn1` (configuration not stated), inhibition was half-maximal at 40 nM (IC50).

`CC(O)(c1ccc(C(Cc2cc[n+]([O-])cc2)c2ccc(OC(F)F)c(OC(F)F)c2)cn1)c1nccs1` (configuration not stated) came in with an IC50 of 6 nM.

Consider `[O-][n+]1ccc(CC(c2ccc(C(O)(c3ccccc3)C(F)(F)F)nc2)c2ccc(OC(F)F)c(OC(F)F)c2)cc1` (configuration not stated), for which 2.4 nM corresponded to half-maximal inhibition (IC50).

In turn, `CCCCC(C)(O)c1ccc(C(Cc2cc[n+]([O-])cc2)c2ccc(OC(F)F)c(OC(F)F)c2)cn1` (configuration not stated) had a half-inhibitory concentration (IC50) of 6 nM.

Compound `[O-][n+]1ccc(CC(c2ccc(Cc3ccccc3)nc2)c2ccc(OC(F)F)c(OC(F)F)c2)cc1` (configuration not stated) came in with an IC50 of 3 nM.

On to `CC(=O)c1ccc(C(Cc2cc[n+]([O-])cc2)c2ccc(OC(F)F)c(OC(F)F)c2)cn1` (configuration not stated), for which the IC50 was 102 nM.

`CC(O)(c1ccccc1)c1ccc(C(Cc2cc[n+]([O-])cc2)c2ccc(OC(F)F)c(OC(F)F)c2)cn1` (mixture of isomers) gave a concentration for half-maximal inhibition (IC50) of 48 nM.

As for `CC(O)(c1ccccc1)c1ccc(C(Cc2cc[n+]([O-])cc2)c2ccc(OC(F)F)c(OC(F)F)c2)cn1` (racemic), the IC50 was determined as 0.6 nM.

With `CC(O)(c1ccccc1)c1ccc(C(Cc2cc[n+]([O-])cc2)c2ccc(OC(F)F)c(OC(F)F)c2)cn1` (single isomer, unassigned; diastereomer 1), half-maximal inhibition (IC50) was put at 2 nM.

In the case of `CC(O)(c1ccccc1)c1ccc(C(Cc2cc[n+]([O-])cc2)c2ccc(OC(F)F)c(OC(F)F)c2)cn1` (single isomer, unassigned; diastereomer 2), the half-inhibitory concentration (IC50) turned out to be 1 nM.

Tested on in a further data set: not listed separately
Nature of the data set: Half life period was determined in squirrel monkey after iv administration at a dose of 5 mg/kg. It is filed as ADME, organism-based. Set-up: dose 5 mg/kg, route intravenous. As to conditions: in vivo.
What is called half-life is the time in which the quantity being followed falls by half. Compound `CC(O)(c1ccccc1)c1ccc(C(Cc2cc[n+]([O-])cc2)c2ccc(OC(F)F)c(OC(F)F)c2)cn1` (single isomer, unassigned; diastereomer 1) showed a half-life of 2.2 h.

Tested on in the next data set: not listed separately
The data set is described as follows: Maximal plasma concentration in squirrel monkeys. It is filed as ADME, organism-based.
Settings: not given
As a reminder, the Cmax is the maximum level reached in the sampled fluid or tissue. As for `CC(O)(c1ccccc1)c1ccc(C(Cc2cc[n+]([O-])cc2)c2ccc(OC(F)F)c(OC(F)F)c2)cn1` (single isomer, unassigned; diastereomer 1), the concentration peaked (Cmax) at 2200 nM.

The species entered for the next data set is Homo sapiens. The data set is described as follows: Ability to inhibit LPS-induced TNF-alpha formation in human whole blood (HWB). It is filed as functional, organism-based.
Settings: not given
As to `CC(O)(c1ccccc1)c1ccc(C(Cc2cc[n+]([O-])cc2)c2ccc(OC(F)F)c(OC(F)F)c2)cn1` (mixture of isomers), the IC50 came to 3500 nM.

`CC(O)(c1ccccc1)c1ccc(C(Cc2cc[n+]([O-])cc2)c2ccc(OC(F)F)c(OC(F)F)c2)cn1` (racemic) returned an IC50 of 350 nM.

`CC(O)(c1ccccc1)c1ccc(C(Cc2cc[n+]([O-])cc2)c2ccc(OC(F)F)c(OC(F)F)c2)cn1` (single isomer, unassigned; diastereomer 1) returned a half-maximal inhibitory concentration (IC50) of 160 nM.

Turning to `CC(O)(c1ccccc1)c1ccc(C(Cc2cc[n+]([O-])cc2)c2ccc(OC(F)F)c(OC(F)F)c2)cn1` (single isomer, unassigned; diastereomer 2), the IC50 turned out to be 110 nM.

The data set is the same for the next values; noted with them: Homo sapiens, Blood.
For the compound `CC(C)C(O)(c1ccccc1)c1ccc(C(Cc2cc[n+]([O-])cc2)c2ccc(OC(F)F)c(OC(F)F)c2)cn1` (configuration not stated), it took 370 nM to reach half-maximal inhibition (IC50).

For `[O-][n+]1ccc(CC(c2ccc(C(O)(c3ccccc3)c3ccccc3)nc2)c2ccc(OC(F)F)c(OC(F)F)c2)cc1` (configuration not stated), it took 550 nM to reach half-maximal inhibition (IC50).

Take `CC(O)(c1ccc(C(Cc2cc[n+]([O-])cc2)c2ccc(OC(F)F)c(OC(F)F)c2)cn1)C1CCCCC1` (configuration not stated): half-maximal inhibition (IC50) required 300 nM.

`CC(C)(O)c1ccc(C(Cc2cc[n+]([O-])cc2)c2ccc(OC(F)F)c(OC(F)F)c2)cn1` (configuration not stated) had an IC50 of 890 nM.

As for `[O-][n+]1ccc(CC(c2ccc(C(O)c3ccccc3)nc2)c2ccc(OC(F)F)c(OC(F)F)c2)cc1` (configuration not stated), the IC50 is 360 nM.

As for `CC(O)(c1ccc(C(Cc2cc[n+]([O-])cc2)c2ccc(OC(F)F)c(OC(F)F)c2)cn1)c1nccs1` (configuration not stated), the IC50 was determined as 490 nM.

`[O-][n+]1ccc(CC(c2ccc(C(O)(c3ccccc3)C(F)(F)F)nc2)c2ccc(OC(F)F)c(OC(F)F)c2)cc1` (configuration not stated) came in with an IC50 of 460 nM.

The compound `O=C(c1ccccc1)c1ccc(C(Cc2cc[n+]([O-])cc2)c2ccc(OC(F)F)c(OC(F)F)c2)cn1` (configuration not stated) yielded an IC50 of 600 nM.

For `CCCCC(C)(O)c1ccc(C(Cc2cc[n+]([O-])cc2)c2ccc(OC(F)F)c(OC(F)F)c2)cn1` (configuration not stated), the half-maximal inhibitory concentration (IC50) worked out at 340 nM.

In turn, `CCC(O)(c1ccccc1)c1ccc(C(Cc2cc[n+]([O-])cc2)c2ccc(OC(F)F)c(OC(F)F)c2)cn1` (configuration not stated) gave an IC50 of 160 nM.

Compound `[O-][n+]1ccc(CC(c2ccc(Cc3ccccc3)nc2)c2ccc(OC(F)F)c(OC(F)F)c2)cc1` (configuration not stated) registered an IC50 of 770 nM.

In turn, `CC(=O)c1ccc(C(Cc2cc[n+]([O-])cc2)c2ccc(OC(F)F)c(OC(F)F)c2)cn1` (configuration not stated) returned an IC50 of 2200 nM.

Take `COc1ccc([C@H](Cc2ccncc2)c2ccccc2)cc1OC1CCCC1` [CDP840]: the IC50 stood at 16000 nM.

Tested on in another data set: not listed separately
Nature of the data set: Half life period was determined in rat after iv administration at a dose of 5 mg/kg. The data set is classed as ADME, organism-based. Details: dose 5 mg/kg, route intravenous. As to conditions: in vivo.
For the compound `CC(O)(c1ccccc1)c1ccc(C(Cc2cc[n+]([O-])cc2)c2ccc(OC(F)F)c(OC(F)F)c2)cn1` (single isomer, unassigned; diastereomer 1), the half-life was 1.5 h.

Tested on in a further data set: not listed separately
Nature of the data set: Oral bioavailability in squirrel monkey at a dose of 10 mg/kg. As to conditions: in vivo. The data set is classed as ADME, organism-based, Saimiri sciureus.
By bioavailability is commonly meant dose-corrected exposure relative to a reference, in per cent. Regarding `CC(O)(c1ccccc1)c1ccc(C(Cc2cc[n+]([O-])cc2)c2ccc(OC(F)F)c(OC(F)F)c2)cn1` (single isomer, unassigned; diastereomer 1), the bioavailability was 73%.

A further data set deals with Ovis aries. The data set is described as follows: Inhibition of ascaris-induced bronchoconstriction in conscious sheep at 0.5 mg/kg iv dose late phase. The data set is classed as functional.
Settings: not given
The term inhibition in vivo denotes how much of the control response was suppressed. `CC(O)(c1ccccc1)c1ccc(C(Cc2cc[n+]([O-])cc2)c2ccc(OC(F)F)c(OC(F)F)c2)cn1` (single isomer, unassigned; diastereomer 1) had an inhibition in vivo at 0.5 mg/kg of 91%.

Another data set relates to Cavia porcellus. Nature of the data set: Inhibition of ovalbumin induced bronchoconstriction in conscious guinea pig after ip administration at 0.3 mg/kg (0.5 hr pre-treatment). It is filed as functional. The note with it: route intraperitoneal.
The Inhibition is how much of the control response was suppressed. For the compound `CC(O)(c1ccccc1)c1ccc(C(Cc2cc[n+]([O-])cc2)c2ccc(OC(F)F)c(OC(F)F)c2)cn1` (single isomer, unassigned; diastereomer 1), the Inhibition worked out at 62%.

As to `CC(O)(c1ccccc1)c1ccc(C(Cc2cc[n+]([O-])cc2)c2ccc(OC(F)F)c(OC(F)F)c2)cn1` (single isomer, unassigned; diastereomer 2), the Inhibition worked out at 34%.

Tested on in the next data set: not listed separately
Nature of the data set: Oral bioavailability in rat. The data set is classed as ADME, organism-based. The note with it: in vivo.
Consider `CC(O)(c1ccccc1)c1ccc(C(Cc2cc[n+]([O-])cc2)c2ccc(OC(F)F)c(OC(F)F)c2)cn1` (single isomer, unassigned; diastereomer 1), for which the bioavailability came to 57%.

Another data set has as its system Ovis aries. Nature of the data set: Inhibition of ascaris-induced bronchoconstriction in conscious sheep at 0.5 mg/kg iv dose at early phase. It is filed as functional.
Settings: not given
Compound `CC(O)(c1ccccc1)c1ccc(C(Cc2cc[n+]([O-])cc2)c2ccc(OC(F)F)c(OC(F)F)c2)cn1` (single isomer, unassigned; diastereomer 1) yielded an inhibition in vivo at 0.5 mg/kg of 33%.
